Data: US6649394B1, “Topoisomerase IV, corresponding nucleotide sequences and uses thereof” (priority 1997, dated 2003)

Tests used:
[1] = target: T1, mutant protein GrlA(Ser-80→Tyr)B (DNA topoisomerase IV) of S. aureus (Staphylococcus aureus, UniProt P0C1S7+P0C1U9, F80Y); assay: biochemical
T1 construct: made in house; host or cells: E. coli XL1-Blue (pXL2742 for GrlA Ser-80→Tyr, pXL2320 for GrlB)
Method: (§1) The ATP-dependent activity of decatenation of intertwined circular DNA molecules (catenanes) can be detected by carrying out the procedure, for example, in the following manner: a mixture of an extract of the E. coli strain XL1-blue pXL2320 (2.5 μg of proteins) and of an extract of the E. coli strain XL1-blue pXL2340 (2.5 μg of proteins) is incubated for 1 h at 37° C. in 40 μl of 50 mM Tris/HCl buffer pH 7.7 containing 1 mM ATP, 6 mM MgCl2, 200 mM glutamate, 10 mM DTT, 10 mM NaCl, 50 μg/ml of bovine serum albumin and 800 ng of kinetoplast DNA [consisting of a network of intertwined DNA molecules (catenanes) obtained from Crithidia fasciculata; TopoGene]. The reaction is stopped by adding 7 μl of a 250 mM EDTA solution (incubation 5 min at 37° C.), 5 μl of a 5% SDS and 2.5 mg/ml proteinase K mixture (incubation 30 min at 37° C.). The mixture is then analysed by electrophoresis on a 1% agarose gel in a 0.1 M Tris/borate buffer pH 8.3 containing 2 mM EDTA at 6 V/cm for 2 h 30 min. After staining the DNA with ethidium bromide (1 μg/ml), the DNA is quantified by scanning the negatives of photographs of the gels (Polaroid type 665 film) with the aid of a Bioimage 50S apparatus (Millipore). […] This activity is detected by the appearance of a DNA band with a size of about 2.5 kb and by the disappearance of the band of catenated DNA of very large size which penetrates very little into the gel during the electrophoretic run (FIG. 5).
(§2) The ATP-dependent activities of supercoiled DNA relaxation, on the one hand, and of decatenation of intertwined circular DNA molecules, on the other hand, are detected in this extract as described in Example 7, by incubating, in the same reaction mixture, an acellular extract of the E. coli strain XL1-Blue pXL2742 containing the protein GrlA(Ser-80→Tyr) and an extract of the E. coli strain XL1-Blue pXL2320 containing the GrlB protein.
(§3) To carry out the experiments described in the examples which follow, the incubations are carried out with the purified wild-type GrlAB proteins as described in Example 7, and with the mutant protein GrlA(Ser-80→Tyr)B as described in Example 8. The two wild-type and mutant GrlAB proteins are reconstituted by mixing equimolar quantities of their two GrlA and GrlB subunits.

[2] = target: T2, wild-type GrlAB protein (DNA topoisomerase IV) of S. aureus (Staphylococcus aureus, UniProt P0C1S7+P0C1U9); assay: Decatenation of kinetoplast DNA by purified wild-type GrlAB protein; type: biochemical
T2 construct: made in house; host or cells: E. coli XL1-Blue (pXL2340 for GrlA, pXL2320 for GrlB; pRSETB vector, T7 promoter)
Method: as §1, §3

[3] = tested on: mutant protein GrlA(Ser-80→Tyr)B (DNA topoisomerase IV) of S. aureus; assay: biochemical; parameters: species or system Staphylococcus aureus; details: GrlA(Ser-80→Tyr)B versus wild-type GrlAB
Method: as §1, §2, §3

Structure (SMILES) | IC50 [1] [µM] | IC50 [2] [µM] | concentration above which the activity of decatenation of kinetoplast DNA is completely inhibited ([2]; purified wild-type GrlAB enzyme) [µg/mL] | concentration for 50% inhibition with mutant enzyme relative to wild-type enzyme [3] [times]
CC1COc2c(N3CCN(C)CC3)c(F)cc3c(=O)c(C(=O)O)cn1c23 (centres unmarked) [Ofloxacin] | 692 | 27.7 | – | –
O=C(O)c1cn(C2CC2)c2cc(N3CCNCC3)c(F)cc2c1=O [ciprofloxacin] | – | – | > 10 | –
CO[C@@H]1[C@@H](OC(N)=O)[C@@H](O)[C@H](Oc2ccc3c(O)c(NC(=O)c4ccc(O)c(CC=C(C)C)c4)c(=O)oc3c2C)OC1(C)C [novobiocin] | ~49 | ~49 | – | –
C[C@@H]1CN(c2c(F)c(N)c3c(=O)c(C(=O)O)cn(C4CC4)c3c2F)C[C@H](C)N1 [sparfloxacin] | 1270 | 15.3 | – | 80
